Measured values published in patent publication US20090163409A1, “Trappin-2 (elafin) inhibits HIV” (priority 2005, published 2009).
“Also recorded” adds a separate entry of the source. Where no end group is shown, it is not given here.

What was measured:
HIV HxBc2 = HIV HxBc2 viral replication in MT4 cells (RT activity in supernatants, p24 western blot); format: cell-based
Experimental: FIG. 4. Trappin-2 inhibits HIV viral replication in an in vitro system. A) We tested HIV HxBc2 in an established viral replication model system and measured the effect of pretreatment of recombinant human trappin-2 (6.0 kDa form) on cells in viral infection 15,19. Briefly, 1 or 5 ug/mL of trappin-2 was incubated with MT4 cells for 1 hour. Then equivalent amounts of virus (0.02 cpm/cell) were added to the cells in the presence of trappin-2 for 2 hours. Infected cells were washed and cultured in the absence of trappin-2. As a control, 10 uM of AZT was used. Viral production in supernatants was evaluated by RT activity after 6 days of culture. […] B) The experiment was repeated with an additional assay of trappin-2 preincubated with cells and subsequently supplemented into the culture media (lane 6). Supernatants were harvested at Day 6 of infection and assayed for both RT activity and western blot analysis for HIV p24. Error bars are mean±SEM.
(§1) Finally, the ability of trappin-2 (6.0 kDa form) to inhibit HIV infection in an established HIV infection model was examined. A highly infectable T cell line (MT4) was used to assay the effect of trappin-2 inhibition on HIV HxBc2 replication 13,14,15. HIV inhibition experiments were performed by preincubating trappin-2 with either the virus, or target cells. […] In our in vitro system a 5 fold increase in trappin-2 (FIG. 4b) had significant effects on HIV replication. Trappin-2 has previously been reported to have immunomodulatory effects and thus its influence on immune regulation is of interest. To determine if the HIV inhibitory effects of trappin-2 are the result of induction of anti-viral cytokines such as IFN-γ, cytokine responses of MT4 cells after treatment with trappin-2 were measured.

MT4 cells = experiment: Cytokine responses of MT4 cells after treatment with trappin-2; format: cell-based
Experimental: as §1

T cell tropic (X4) HIV = settings: T cell tropic (X4) viruses; cited from earlier work
[1] = test system: macrophage tropic (R5) HIV; settings: macrophage tropic (R5) viruses; cited from earlier work

## trappin-2: recombinant human trappin-2 (6.0 kDa form), serine protease inhibiter of the Trappin family, also known as elafin/SKALP (AQEPVKGPVSTKPGSCPIILIRCAMLNPPNRCLKDTDCPGIKKCCEGSCGMACFVPQ; not fully specified (bridges); also: four disulfide bridges, pairing not given here; UniProt P19957 61-117, looked up)
HIV HxBc2; MT4 cells pretreated 1 hour with 1 or 5 ug/mL trappin-2 (physiological concentrations), virus 2 hours, washed, cultured without trappin-2, day 6
  HIV viral replication (RT activity in supernatants): greatly reduced HIV viral replication in a dose dependent manner; also recorded: significantly reduced virus replication
HIV HxBc2; simultaneous addition of trappin-2 and virus to target cells, compared with 1-hour pre-exposure
  inhibition of HIV replication: significantly less inhibition
HIV HxBc2; trappin-2 preincubated 1 hour with cells and added back into the culture media, day 6
  HIV viral replication (RT activity, p24 western blot): even more dramatic decrease in viral replication
MT4 cells
  induction of cytokines (anti-viral cytokines such as IFN-γ): No induction of cytokines was detected

B1: SLP-I: protease inhibitor and member of the antileukoprotease superfamily, first isolated from human saliva (protein, UniProt P03973 26-132, looked up)
Antileukoproteinase: SGKSFKAGVCPPKKSAQCLRYKKPECQSDWQCPGKKRCCPDTCGIKCLDPVDTPNPTRRKPGKCPVTYGQCLMLNPPNFCEMDGQCKRDLKCCMGMCGKSCVSPVKA
T cell tropic (X4) HIV
  prevention of infection of T cells: does not prevent infection of T cells
[1]
  inhibition of HIV infection of macrophage cells: inhibit HIV infection of macrophage cells
